{"source": "patent US7781580B2", "about": "“Stilbene derivatives as new cancer therapeutic agents” (Virginia Commonwealth University, priority 2007, dated 2010)", "key": {"Tubulin (>99% pure)": {"tested_on": "Tubulin (>99% pure)", "assay": "tubulin polymerization assay (OD 340 nm)", "assay_type": "biochemical", "conditions": "OD340 nm; nocodazole and paclitaxel 10 μM"}, "UCI101 cells": {"tested_on": "UCI101 cells", "assay": "cell cycle analysis (propidium iodide, FACScan), UCI101", "assay_type": "cell-based", "description": "Cells were stained with propidium iodide and analyzed with FACScan. Both 5b at 3 μM and stilbene 4a at 30 nM induce a subG0/1 population that represents the dead population. At higher concentrations of either compound, nearly all cells are dead.\n(a) In vitro sensitivity of UCI101 cells toward three potential stilbene prodrugs, 5a-c, was tested in 96-well plates using Alamar Blue™ assays to determine cell growth inhibition. […] (b) 5b induces cell cycle change and apoptosis in UCI101 cells. […] A subG0/1 population, representing apoptotic cells, appeared along with a decrease of the G1/G2 ratio after cells were treated with 3 μM 5b. […] (c) Cells treated with stilbene 4a and 5b were stained with phospho-histone 3B, a mitotic marker. The positive signals of phospho-histone 3B were shown in green and nuclei were stained with DAPI in blue. […] (d) In vivo efficacy of 5b compared with stilbene 4a. Nude mice were injected with UCI101 ovarian cancer cells and treated with 7 doses of 5b,c or stilbene 4a every 2-3 days. Tumor volume was calculated and plotted against days."}, "[1]": {"tested_on": "Hep3B hepatocellular carcinoma cells (xenograft)", "assay": "DCE-MRI tumor vascular perfusion, Hep3B xenograft", "assay_type": "in vivo, mice", "conditions": "50 mg/kg intraperitoneally", "description": "Mice with established tumor xenografts were used for this study. […] Tumor and kidney, as the representative normal organ, were marked by arrowheads. […] Mice were then left overnight to wash out gadolinium and treated with stilbene 4a at 50 mg/kg intraperitoneally. 4 hours after stilbene injection, mice were imaged with the same protocol. […] Only a small amount of residual gadolinium was still in the tissues.\nIn order to establish that stilbene suppresses tumor perfusion by damaging tumor endothelial cells, we first incubated human vascular endothelial cells with various concentrations of stilbenes in vitro. After 24 hours of incubation, cells were then fixed with 2% paraformaldehyde and stained with anti-tubulin antibody to examine the tubulin disruption and with DAPI to analyze nuclear fragmentation. Dynamic-contrast enhanced magnetic resonance imaging (MRI) scanning was used to investigate tumor perfusion in vivo. Immunodeficient nude mice were first injected with Hep3B hepatocellular carcinoma cells subcutaneously. […] A region of interest (ROI) was chosen from the scan and the MRI signal in the ROI was plotted against time and the initial steepest slope of the curve was calculated to represent the maximal perfusion of the ROI. […] The perfusion rate of the muscle region was normalized and set at 100% and the rate of perfusion in tumor was calculated versus the muscle. […]"}, "[2]": {"tested_on": "MDA-MB231 breast cancer cells", "assay": "cell cycle analysis, MDA-MB231", "assay_type": "cell-based", "conditions": "16 hours", "description": "Cells were treated with various concentrations of stilbene 4a or CA4 for 16 hours followed by PI staining and FACscan analysis. […] A unique feature of stilbene 4a was noted when cells were treated with 30 nM.\nDue to the structural similarity between stilbene 4a and CA4, we investigated the difference in the biological activity of these two compounds in MDA-MB231 breast cancer cells and their Chk2−/− derivatives. […] MDA-MB231 cells were treated with 10 nM stilbene 4a or 1 nM CA4. […] However, a difference in cell cycle change was observed following treatment with 30 nM of stilbene 4a versus 3 nM of CA4. […] This was also the case for cells treated with 100 nM stilbene 4a. A significant subG1/0 population was also noted. […] One possible effect could be a DNA damage response, which is a common mechanism of multiple chemotherapeutic agents but not one of pure microtubule-interfering agents such a paclitaxel or vincristine. […] We then obtained conditional Chk1−/− and Chk2−/− cells, which were derived from the same MDA-MB231 cells for the same flow cytometry analysis. […] In contrast, Chk2−/− cells were more sensitive to stilbene 4a. […] This mechanism is not obvious in higher drug concentrations at which the G2 arrest from microtubule interference is dominant. Therefore, in addition to their microtubule interfering effect, stilbenes have another mechanism to induce cell death. Thus, the use of a Chk2 inhibitor in combination with stilbenes may be a viable approach to enhancing the beneficial therapeutic effects of stilbenes."}}, "data": [{"smiles": "COc1cc(/C=C\\c2ccc(OC)c(N)c2)cc(OC)c1", "note": "[4a, (Z)-5-[2-(3,5-Dimethoxy-phenyl)-vinyl]-2-methoxy-phenylamine]", "values": [{"measurement": "effect on tubulin polymerization", "setting": "Tubulin (>99% pure)", "value": "suppressed polymerization in a dose-dependent manner"}, {"measurement": "cell cycle effect", "setting": "UCI101 cells; 4a at 30, 100 nM, 5b at 1, 3, 10 μM", "value": "induced G2/M cell cycle arrest and accumulation of the subG1/0 population"}, {"measurement": "concentration inducing a subG0/1 (dead) population", "setting": "UCI101 cells; 24 hours", "value": 30, "unit": "nM"}, {"measurement": "normal vascular perfusion", "setting": "[1]", "value": "without compromising normal vascular perfusion"}, {"measurement": "tumor vascular perfusion (gadolinium enhancement)", "setting": "[1]; 4 hours after injection", "value": "significantly less gadolinium enhancement"}, {"measurement": "cell cycle change at 30 nM", "setting": "[2]; 30 nM", "value": "induced some degree of G2 arrest, but the ratio of G1/G2 did not reverse"}, {"measurement": "cell cycle change at 10 nM stilbene 4a or 1 nM CA4", "setting": "[2]", "value": "No change was observed"}]}]}
